The structures appear in SMILES notation. Like-named read-outs stand apart in the source and are kept apart here.

In general, ED50 refers to the midpoint of the dose-response relation.

The target in one experiment is α1-adrenergic receptor. The experiment in a line: Binding to the α1-adrenergic receptor (displacement of [3H]prazosin, rat cortex). Details: species or system male Sprague-Dawley rat. The following applies: mean of at least 3 experimentations. On the procedure: (§1) Binding to the 5-HT1A, D2 dopaminergic and α1-adrenergic receptors:
(§2) Brains from male Sprague-Dawley 180-200 g rats [Ico: OFA SD (I.O.P.S. Caw); Iffa Credo, France], maintained at -70° C., were used in all the studies.
(§3) The affinity of the products for the various receptors was determined by displacement of radioactive ligands under the conditions summarized in Table 1.
(§4) The reaction is halted by rapid filtration, under vacuum, through Whatman GF/B filters and the tubes are rinsed with 2×5 ml of Tris-HCl 50 mM, pH 7.4, buffer at 25° C. The radioactivity collected on the filter is analyzed by liquid scintillation after addition of 4 ml of liquid scintillant (Emulsifier Safe, Packard). All the experiments are carried out in triplicate.
(§5) The pKi (-log Ki) values are given in the form of the mean±SEM of at least 3 experimentations (Table 2).
In general terms: Loss of bound radioactivity is the signal in a displacement assay; it reports binding, not function.

For the next experiment, the target named is T1, D2 dopaminergic receptor (Rattus norvegicus, UniProt P61169).
T1 construct: Brains from male Sprague-Dawley 180-200 g rats; tissue Iffa Credo, France (animals); host or cells: rat brain striatum
The experiment in a line: Binding to the D2 dopaminergic receptor (displacement of [3H]YM-09151-2, rat striatum). Details: species or system male Sprague-Dawley rat. The following applies: read-out: pKi D2 (converted). The method, then: as §1, §2, §3, §4
(§6) The inhibition constants (Ki) of the products are estimated from the displacement experimentations by using the EBDA (equilibrium binding data analysis) Radlig Version 4 non linear regression program (Biosoft, Cambridge, UK; McPherson, 1985).
as §5

A short description of experiment [1]: Antidepressant activity: Forced swimming test. The experiment is classed as in vivo. The following applies: percentage of animals with significant decrease (p<0.05) in immobility time vs control; po.
For experiment [2], the target named is T2, 5-HT1A receptor (Rattus norvegicus, UniProt P19327).
T2 sequence (P19327 1-422): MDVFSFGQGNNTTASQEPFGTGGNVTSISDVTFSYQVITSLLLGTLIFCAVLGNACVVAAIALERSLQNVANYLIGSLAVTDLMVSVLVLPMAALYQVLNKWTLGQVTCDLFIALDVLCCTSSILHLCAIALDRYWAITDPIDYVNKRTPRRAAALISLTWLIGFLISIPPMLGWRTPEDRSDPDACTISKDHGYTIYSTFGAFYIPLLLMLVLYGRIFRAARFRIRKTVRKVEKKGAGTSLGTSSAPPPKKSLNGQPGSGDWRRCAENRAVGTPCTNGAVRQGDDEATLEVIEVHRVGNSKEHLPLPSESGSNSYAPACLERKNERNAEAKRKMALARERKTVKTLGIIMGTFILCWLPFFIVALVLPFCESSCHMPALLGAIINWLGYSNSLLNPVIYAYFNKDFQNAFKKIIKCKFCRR
The experiment can be described thus: 5-HT syndrome (serotoninergic syndrome) in the male rat. In kind it is in vivo, male rat (Sprague-Dawley). Details: carried out with the male rat (Sprague-Dawley); from tissue; host or cells: whole living rat (Sprague-Dawley). The settings on record: po. On the procedure:
The central activity of the compounds of the invention was evaluated by their ability to provoke the 5-HT syndrome, which is characterized by:
an alternating bending and stretching of the forepaws (reciprocal fore-paw treading: FPT)
the retraction of the lower lip (lower lip retraction: LLR)
a position or the ventral surface of the animal is in contact with the ground and the hind paws extended (flat body posture: FBP).
The experiments on the evaluation of the 5-HT syndrome are carried out with the male rat (Sprague-Dawley) according to the technique described by F. C. Colpaert et al. (Drug. Dev. Res., 26, 21-48, 1992) and M. S. Kleven et al. (J.P.E.T., 282, 747-759, 1997).

For experiment [3], the target named is T2, 5-HT1A receptor. The experiment in a line: Binding to the 5-HT1A receptor (displacement of [3H]8-OH-DPAT, rat cortex). Details: Brains from male Sprague-Dawley 180-200 g rats; tissue Iffa Credo, France (animals); host or cells: rat brain cortex; species or system male Sprague-Dawley rat. The following applies: read-out: pKi 5-HT1A (converted). On the procedure:
as §1, §2, §3, §4, §6, §5
10 A Assie and Koek, Eur. J.

The mark [4] stands for this setting: FBP, read-out: ED50 FBP (flat body posture).
The mark [5] stands for this setting: FPT, read-out: ED50 FPT (reciprocal fore-paw treading).
Setting [6] is: LLR, read-out: ED50 LLR (lower lip retraction).

T1 sequence (P61169 whole entry): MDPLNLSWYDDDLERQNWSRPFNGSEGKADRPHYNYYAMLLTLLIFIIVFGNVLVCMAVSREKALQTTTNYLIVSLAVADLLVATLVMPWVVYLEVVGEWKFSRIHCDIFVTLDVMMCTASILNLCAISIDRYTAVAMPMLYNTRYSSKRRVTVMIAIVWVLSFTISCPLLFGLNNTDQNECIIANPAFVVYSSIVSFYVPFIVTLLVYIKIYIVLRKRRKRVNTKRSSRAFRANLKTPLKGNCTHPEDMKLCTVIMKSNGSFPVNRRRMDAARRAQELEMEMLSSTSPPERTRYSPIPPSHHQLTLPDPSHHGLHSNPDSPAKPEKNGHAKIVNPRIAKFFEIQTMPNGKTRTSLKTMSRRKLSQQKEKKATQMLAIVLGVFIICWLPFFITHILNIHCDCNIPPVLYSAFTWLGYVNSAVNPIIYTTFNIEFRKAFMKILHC

With `Cn1ncc(O[C@H]2CC[C@H](N3CCN(c4ncccn4)CC3)CC2)nc1=O` [Compound 9, trans-2-Methyl-5-[4-(4-pyrimidin-2-yl-piperizin-1-yl)cyclohexyloxy]-2H-[1,2,4]triazin-3-one], the “pKi α1” value at α1-adrenergic receptor is under 5.0. For the same molecule, the values for the Ki at D2 dopaminergic receptor and at 5-HT1A receptor [3] were over 10000 nM and 0.708 nM, respectively. Further, the 50% effective dose (ED50) in experiment [1] worked out at 0.31 mg/kg; on 5-HT1A receptor [2] (setting [4]), 0.08 mg/kg; at 5-HT1A receptor [2] (setting [5]), 0.31 mg/kg; at 5-HT1A receptor [2] (setting [6]), 0.08 mg/kg.

As to `Cn1ncc(O[C@H]2CC[C@H](N3CCN(c4ncc(F)cn4)CC3)CC2)nc1=O` [Compound 15, Trans-2-Methyl-5-[4-[4-(5-Fluoropyrimidin-2-Yl)Piperazin-1-yl]Cyclohexyloxy]-2H-[1,2,4]Triazin-3-One], the ED50 on 5-HT1A receptor [2] (setting [4]) was 1.25 mg/kg; on 5-HT1A receptor [2] (setting [5]) it was over 2.5 mg/kg; on 5-HT1A receptor [2] (setting [6]) it was 0.31 mg/kg.

With `Cn1nc(N[C@H]2CC[C@H](N3CCN(c4cccc(Cl)c4)CC3)CC2)c(=O)n(C)c1=O` [Compound 17, trans-6-{4-[4-(3-Chlorophenyl)piperazin-1-yl]cyclohexylamino}-2,4-dimethyl-2H-[1,2,4]triazine-3,5-dione], at α1-adrenergic receptor, the “pKi α1” value was 7.74. Further, the values for the Ki at D2 dopaminergic receptor and at 5-HT1A receptor [3] were 603 nM and 0.398 nM, respectively.

For the molecule `O=C(NCCN1CCN(c2cccc3c2OC[C@H](CO)O3)CC1)c1ccc(F)cc1` [Flesinoxan, reference compound], the “pKi α1” value at α1-adrenergic receptor is listed as 6.50. The Ki is 89.1 nM at D2 dopaminergic receptor and 1.23 nM at 5-HT1A receptor [3]. Besides, the ED50 in experiment [1] came out at 1.25 mg/kg; on 5-HT1A receptor [2] (setting [4]), 1.25 mg/kg; at 5-HT1A receptor [2] (setting [5]) it was 5 mg/kg; at 5-HT1A receptor [2] (setting [6]) it was 1.25 mg/kg.

Take `O=C1CC2(CCCC2)CC(=O)N1CCCCN1CCN(c2ncccn2)CC1` [Buspirone, reference compound]: on α1-adrenergic receptor, the “pKi α1” value turned out to be 6.19. Besides, the median effective dose (ED50) in experiment [1] is over 160 mg/kg; at 5-HT1A receptor [2] (setting [5]) it was over 40 mg/kg; on 5-HT1A receptor [2] (setting [6]), 2.5 mg/kg.

As to `Cn1c(=O)cnn([C@H]2CC[C@H](N3CCN(c4ncccn4)CC3)CC2)c1=O` [Compound 4, Trans-4-Methyl-2-[4-(4-Pyrimidin-2-Yl-Piperazin-1-Yl)Cyclohexyl]-2H-[1,2,4]Triazine-3,5-Dione], on α1-adrenergic receptor, the “pKi α1” value is reported as under 5.0. Further, the Ki on D2 dopaminergic receptor was over 10000 nM; at 5-HT1A receptor [3], 3.72 nM. Also, the ED50 in experiment [1] came out at 1.25 mg/kg; at 5-HT1A receptor [2] (setting [4]), 1.25 mg/kg; on 5-HT1A receptor [2] (setting [5]), 1.25 mg/kg; on 5-HT1A receptor [2] (setting [6]) it was 0.31 mg/kg.

In the case of `COc1ccnc(N2CCN([C@H]3CC[C@H](Oc4cnn(C)c(=O)n4)CC3)CC2)n1` [Compound 13, Trans-2-Methyl-5-[4-[4-(4-Methoxypyrimidin-2-Yl)Piperazin-1-yl]Cyclohexyloxy]-2H-[1,2,4]triazin-3-One], the “pKi α1” value at α1-adrenergic receptor is 6.65. The results for the Ki at D2 dopaminergic receptor and on 5-HT1A receptor [3] were over 10000 nM and 0.525 nM, respectively. For the same molecule, the ED50 on 5-HT1A receptor [2] (setting [4]) was found to be 0.31 mg/kg; on 5-HT1A receptor [2] (setting [5]), 0.31 mg/kg; at 5-HT1A receptor [2] (setting [6]) it was 0.08 mg/kg.

As for `Cn1nc(N(C)[C@H]2CC[C@H](N3CCN(c4cccc(Cl)c4)CC3)CC2)c(=O)n(C)c1=O` [Compound 19, Trans-6-({4-[4-(3-Chlorophenyl)Piperazin-1-Yl]Cyclohexyl}Methylamino)-2,4-Dimethyl-2H-[1,2,4]Triazine-3,5-Dione], the “pKi α1” value on α1-adrenergic receptor amounted to 7.86. The Ki on D2 dopaminergic receptor is over 10000 nM; on 5-HT1A receptor [3], 0.195 nM.

Consider `Cc1ccnc(N2CCN([C@H]3CC[C@H](n4ncc(=O)n(C)c4=O)CC3)CC2)n1` [Compound 6, Trans-4-Methyl-2-[4-[4-(4-Methylpyrimidin-2-Yl)Piperazin-1-Yl]Cyclohexyl]-2H-[1,2,4]triazine-3,5-dione], for which the “pKi α1” value at α1-adrenergic receptor is listed as 6.10. Moreover, the Ki at D2 dopaminergic receptor is over 10000 nM; at 5-HT1A receptor [3], 0.813 nM. Moreover, the ED50 at 5-HT1A receptor [2] (setting [4]), at 5-HT1A receptor [2] (setting [5]) and on 5-HT1A receptor [2] (setting [6]) was 0.08 mg/kg throughout.

Consider `Cn1ncc(O[C@H]2CC[C@H](N3CCN(c4nccc(Cl)n4)CC3)CC2)nc1=O` [Compound 12, Trans-2-Methyl-5-[4-[4-(4-Chloropyrimidin-2-Yl)Piperazin-1-Yl]Cyclohexyloxy]-2H-[1,2,4]Triazin-3-One], for which the “pKi α1” value at α1-adrenergic receptor is reported as 6.21. Besides, the results for the Ki at D2 dopaminergic receptor and at 5-HT1A receptor [3] were over 10000 nM and 0.288 nM, respectively. Further, the ED50 in experiment [1] was 0.74 mg/kg; at 5-HT1A receptor [2] (setting [4]), 0.08 mg/kg; on 5-HT1A receptor [2] (setting [5]), 0.08 mg/kg; at 5-HT1A receptor [2] (setting [6]), 0.08 mg/kg.

In the case of `Cc1cc(C)nc(N2CCN([C@H]3CC[C@H](Oc4cnn(C)c(=O)n4)CC3)CC2)n1` [Compound 11, Trans-2-Methyl-5-[4-[4-(4,6-Dimethyl-Pyrimidin-2-Yl)Piperazin-1-Yl]Cyclohexyloxy]-2H-[1,2,4]triazin-3-one], at α1-adrenergic receptor, the “pKi α1” value is recorded as 5.72. The results for the Ki at D2 dopaminergic receptor and on 5-HT1A receptor [3] were over 10000 nM and 0.251 nM, respectively. The ED50 came out at 0.08 mg/kg in experiment [1], 0.02 mg/kg on 5-HT1A receptor [2] (setting [4]), 0.08 mg/kg at 5-HT1A receptor [2] (setting [5]) and 0.02 mg/kg on 5-HT1A receptor [2] (setting [6]).

With `Cc1ccnc(N2CCN([C@H]3CC[C@H](Oc4cnn(C)c(=O)n4)CC3)CC2)n1` [Compound 10, trans-2-Methyl-5-[4-[4-(4-methylpyrimidin-2-yl)piperazin-1-yl]cyclohexyloxy]-2H-[1,2,4]triazin-3-one], at α1-adrenergic receptor, the “pKi α1” value stood at 5.95. In addition, the Ki was over 10000 nM at D2 dopaminergic receptor and 0.251 nM at 5-HT1A receptor [3]. For the same molecule, the ED50 in experiment [1] amounted to 0.08 mg/kg; on 5-HT1A receptor [2] (setting [4]), 0.08 mg/kg; at 5-HT1A receptor [2] (setting [5]), 0.08 mg/kg; on 5-HT1A receptor [2] (setting [6]) it was 0.02 mg/kg.

On to `Cn1ncc(O[C@H]2CC[C@H](NCC3COc4ccccc4O3)CC2)nc1=O` (relative stereo) [Compound 16, Trans-5-[4-[(2,3-Dihydrobenzo[1,4]Dioxin-2-Ylmethyl)Amino]Cyclohexyloxy]-2-Methyl-2H-[1,2,4]Triazin-3-One], for which the ED50 was 0.31 mg/kg at 5-HT1A receptor [2] (setting [4]), over 2.5 mg/kg at 5-HT1A receptor [2] (setting [5]) and 0.08 mg/kg on 5-HT1A receptor [2] (setting [6]). The Ki at 5-HT1A receptor [3] is 0.166 nM.

Turning to `Cn1ncc(O[C@H]2CC[C@H](N3CCN(c4nccc(C(F)(F)F)n4)CC3)CC2)nc1=O` [Compound 14, Trans-2-Methyl-5-[4-[4-(4-Trifluoro-Methylpyrimidin-2-Yl)Piperazin-1-Yl]Cyclohexyloxy]-2H-[1,2,4]Triazin-3-One], the ED50 on 5-HT1A receptor [2] (setting [4]) amounted to 0.31 mg/kg; on 5-HT1A receptor [2] (setting [5]), 0.31 mg/kg; on 5-HT1A receptor [2] (setting [6]), 0.08 mg/kg.

Take `Cc1cc(C)nc(N2CCN([C@H]3CC[C@H](n4ncc(=O)n(C)c4=O)CC3)CC2)n1` [Compound 5, trans-4-Methyl-2-[4-[4-(4,6-dimethylpyrimidin-2-yl)piperizin-1-yl]cyclohexyl]-2H-[1,2,4]triazine-3,5-dione]: the “pKi α1” value at α1-adrenergic receptor was 5.89. Also, the Ki was over 10000 nM on D2 dopaminergic receptor and 0.603 nM at 5-HT1A receptor [3]. The ED50 in experiment [1] is 0.31 mg/kg; at 5-HT1A receptor [2] (setting [4]), 0.08 mg/kg; on 5-HT1A receptor [2] (setting [5]), 0.08 mg/kg; on 5-HT1A receptor [2] (setting [6]), under 0.04 mg/kg.

Source of the values: US6191130A, “Cyclohexane derivatives difunctionalised in 1,4 as ligands of 5T H1A receptors” (Pierre Fabre Medicament, priority 1997, dated 2001).
